{
  "source": "patent US12268739B2",
  "about": "“Use of toll-like receptor 2 (TLR-2) agonist for modulating human immune response” (Children's Medical Center Corporation, priority 2018, dated 2025)",
  "key": {"[1]": {"target": "T1, human TLR2 (Homo sapiens, UniProt O60603)", "T1 construct": "expressed in transfected cells; host or cells: HEK-Blue (human embryonic kidney) cells with an NF-kB-inducible SEAP reporter", "T1 sequence (O60603 21-784)": "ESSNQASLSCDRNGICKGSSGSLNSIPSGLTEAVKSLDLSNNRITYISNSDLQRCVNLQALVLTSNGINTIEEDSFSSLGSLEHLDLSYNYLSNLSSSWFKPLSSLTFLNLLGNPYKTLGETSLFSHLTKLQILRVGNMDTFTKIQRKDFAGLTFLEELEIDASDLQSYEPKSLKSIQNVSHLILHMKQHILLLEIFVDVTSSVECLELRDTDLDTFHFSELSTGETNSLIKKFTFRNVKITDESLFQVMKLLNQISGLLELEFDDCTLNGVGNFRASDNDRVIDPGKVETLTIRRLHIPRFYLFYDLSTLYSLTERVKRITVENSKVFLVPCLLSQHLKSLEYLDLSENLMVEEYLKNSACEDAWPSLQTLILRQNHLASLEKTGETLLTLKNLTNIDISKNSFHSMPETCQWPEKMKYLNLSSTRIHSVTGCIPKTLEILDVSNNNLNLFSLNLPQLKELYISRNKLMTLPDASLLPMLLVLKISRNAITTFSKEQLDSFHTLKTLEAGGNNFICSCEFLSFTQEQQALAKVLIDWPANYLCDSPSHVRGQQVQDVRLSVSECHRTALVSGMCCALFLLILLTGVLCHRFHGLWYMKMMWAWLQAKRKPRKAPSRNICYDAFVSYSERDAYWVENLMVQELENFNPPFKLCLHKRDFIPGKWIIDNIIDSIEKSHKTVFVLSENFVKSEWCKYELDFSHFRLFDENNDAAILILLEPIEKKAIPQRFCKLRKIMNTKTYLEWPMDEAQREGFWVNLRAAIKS", "test": "HEK293 assay for human TLR2 selectivity (NF-κB/SEAP)", "assay_type": "cell-based", "details": "18-24 hours stimulation, titratable", "experimental": "HEK293 assay for human TLR2 and TLR8 selectivity: Human embryonic kidney (HEK) 293 cells expressing human TLR2 or TLR8 with an NF-κB-responsive secreted embryonic alkaline phosphatase (SEAP) reporter gene were obtained from Invivogen (San Diego, CA). Cells were maintained in RPMI or DMEM with 10% heat inactivated-FBS and selection antibiotics per the manufacturer's instructions. Cells were plated at 5×10^5 cells/96-well and stimulated with indicated agonist(s) for 24 hours. Supernatants were harvested and analyzed for NF-κB/SEAP activation using the QuantiBlue kit (Invivogen). Values are expressed as fold change in OD650 over vehicle-only treated samples."}, "[2]": {"test_system": "human adult PBMCs", "test": "Cytokine production by stimulated human adult PBMCs (ELISA / multiplex)", "assay_type": "cell-based", "experimental": "ELISAs and Multiplex-Analyte Assays. Supernatants derived from human PBMCs stimulations were assayed by ELISA for TNF and IL-6 (ThermoFisher Scientific; Waltham, MA, USA). Cytokine and chemokine expression profiles (e.g., IFNγ, IL-9, IL-10, IL-12 (p70), IL-13, IL-1β, IL-23, IL-27, IL-28A, IL-33, IL-6, MIP-3α/CCL20, and TNF) in cell culture supernatants were measured using a customized Milliplex® Human Th17 Magnetic Bead Panel according to the manufacturer's instructions (Millipore, Chicago, IL, USA). Assays were read and analyzed on the Luminex® 100/200TM System and xPOTENT® software (Luminex, Austin, TX). A minimum threshold was set at the minimum detectable concentration for each individual assay, defined as three standard deviations above the mean background.\nPBMCs were isolated from blood using a Ficoll density gradient. PBMCs either used fresh or were stored at 5×10^7 cells per vial in 1 mL RPMI containing 20% autologous plasma and 10% DMSO at −80° C. until use. […] PBMCs isolated from human adult donors or THP1-NF-κB cells were resuspended at a concentration of 10^5 cells/200 μl of RPMI supplemented with 10% of platelet-poor plasma or THP1 culture medium, respectively. […] After 24 hours of incubation (37° C., 5% CO2), plates were spun down (500×g, room temperature, 5 minutes) and supernatants were harvested for further analysis."}, "[3]": {"target": "T1, human TLR2", "test": "HEK-Blue human TLR cell screening (NF-κB SEAP reporter)", "assay_type": "cell-based", "details": "compounds at 10 μM, fold change over negative controls; listed as 080", "experimental": "HEK cell screening. Human embryonic kidney (HEK)-Blue cell lines expressing human TLRs (hTLRs) and a secreted embryonic alkaline phosphatase (SEAP) reporter under the control of an NF-κB-inducible promoter were cultured in 96-well plates (50,000-75,000 cells/200 μl/well) and stimulated with the indicated compounds at 10 µM or positive controls. The media added to the wells is designed for detection of NF-κB-induced SEAP expression. After 16-24 hours of incubation optical density (OD) was read at 650 nm on a Molecular Devices SpectraMax 340PC absorbance detector. Positive controls employed in this assay were: heat-killed Listeria monocytogenes (1×10^8 cells/ml) for hTLR2, Poly (I:C) HMW (1 μg/ml) for hTLR3, ? E. coli K12 LPS (100 ng/ml) for hTLR4, S. typhimurium flagellin (100 ng/ml) for hTLR5, CL307 (1 μg/ml) for hTLR7, CL075 (1 μg/ml) for hTLR8 and CpG ODN 2006 (1 μg/ml) for hTLR9."}, "[4]": {"test_system": "NF-κB reporter THP1 cells", "test": "NF-kB-induced luminescence HTS in THP1-Lucia cells (384-well)", "assay_type": "cell-based, human", "details": "ranked at 3.3 μM; ~200,000 compounds tested; listed as 080", "from_the_text": "HTS Overview: To identify immunomodulators/adjuvants that robustly activate human immune cells, ˜200,000 small molecules were screening in a THP1 cell-based assay. The chemical libraries screened included known bioactive and commercial libraries from various sources including commercial libraries such as ChemDiv, ChemBridge, and Asinex. All libraries were owned and provided by the Institute of Chemistry and Cell Biology (ICCB)—Longwood (Harvard Medical School). The project primary screen incorporated two distinct arms: a) a luciferase-based screen which corresponds to the relative activation of the NF-κB reporter; and b) a fluorescence-based screen, corresponding to the phenotypic adherence, a distinct marker of cell activation, of the human monocytic THP-1 cell lines. Described herein are small molecules identified in the screen that induce NF-kB activity based on a luciferase-based THP-1 cell screen.\nTHP-1 Cell Line and Culture Conditions. The THP1-Lucia™ cell line was obtained from Invivogen (San Diego, CA). THP1-Lucia cells, which are human monocytic cells derived from the blood of a child with leukemia, contain an NF-kB-inducible Luc reporter construct. This allows NF-kB activation to be measured by quantifying the luminescence from the secreted luciferase enzyme. THP1-Lucia cells were cultured in RPMI 1640 supplemented with 10% non-heat inactivated fetal bovine serum (FBS), 10 mM HEPES, 1.0 mM sodium pyruvate, 50 ug/ml Pen-Strep, and 100 ug/mL Normocin™. Once cultured, the cells were stored in a 37° C. incubator with 5% CO2 and a humidified atmosphere. Cells were passaged every 2-3 days and not allowed to exceed a concentration of 2.0×10^6 cells/ml media.\nNF-kB-induced Luminescence Assay. THP1-Lucia cells between passage 15 and 18 and suspended in culture medium were dispensed into 384-well black clear-bottom plates (Corning 3712) at 30,000 cells/30 μl/well using a Combi liquid dispenser. To allow comparison to a benchmark small molecule with known immune stimulating activity, cells at the same concentration were stimulated with 50 μM R848, a TLR7/8 agonist, in 0.3% DMSO and added to every other well of column 24, which was left empty of cells, by multichannel pipette at the same volume. Five μl of 700 nM Phorbol myristate acetate (PMA) in THP1 culture media and 2.3% DMSO, a known peripheral blood cell mitogen, was added to every other well of column 23 by multichannel pipette (final concentration in well: 100 nM in 0.3% DMSO). Five μl of THP1 culture media with 2.3% DMSO was added to the remaining wells of column 23 by multichannel pipette (final concentration 0.3% DMSO). One hundred nl aliquots of library compounds diluted in 100% DMSO were transferred from their original 384-well plates to the assay plates using a Seiko pin transfer machine. Each library plate was pinned in duplicate, yielding two assay plates with identical conditions for comparison. Plates were then incubated for 24 hours at 37 C with 5% CO2 in humid conditions. Following incubation, 10 μL of supernatant was removed from each well and transferred to a white plate (Corning 3570) using a Vprep liquid transfer machine. 10 μL of recombinant Lucia protein (Invivogen) diluted 1:2000 in THP1 culture media was added to empty well 24P. Using a Combi liquid dispenser, 50 μL/well of Quanti-Luc substrate (Invivogen) diluted 1:3 in sterile water was added to the assay plate. Immediately after adding the substrate, the luminescence was read using a PerkinElmer Envision plate reader."}, "[5]": {"details": "human adult PBMCs, 24 hours, compounds at 100 µM (FIG. 7), ELISA, median"}},
  "note": "“Also recorded” adds a separate entry of the source.",
  "data": [
    {"molecule": "CNC(=O)c1c(NC(=O)c2ccc(S(=O)(=O)N(C)C)cc2)sc2c1CCC2", "note": "[Compound 80]", "values": [
      {"measurement": "TLR2 activation in HEK TLR2 cells (SEAP)", "setting": "[1]", "value": "induced TLR2 specific activation"},
      {"measurement": "Activation of human adult PBMCs", "setting": "[2]; 384 and 96 well assay", "value": "induced activation"},
      {"measurement": "Cytokine production (TNF and IL-6) from human adult PBMCs", "setting": "[2]; 24 hours, 100 μM, ELISA", "value": "induces cytokine production"},
      {"measurement": "Adult PBMCs (median ng/ml) IL-6 (N = 7)", "setting": "[2]; [5]", "value": 1.868, "unit": "ng/mL"},
      {"measurement": "Adult PBMCs (median ng/ml) TNFa (N = 13)", "setting": "[2]; [5]", "value": 0.1958, "unit": "ng/mL"},
      {"measurement": "Activation of human TLR2 (NF-κB activation in TLR-expressing HEK-Blue cells)", "setting": "[3]", "value": "activate human TLR2; also recorded: activated the human TLR2-expressing human embryonic kidney (HEK)-Blue cell line"},
      {"measurement": "Efficacy in activating NF-κB in THP1 cells (screening hits)", "setting": "[4]", "value": "most effective NF-κB activators; also recorded: most effective NF-kB activators"}
    ]}
  ]
}
